Measurements as given in patent US9611269B2, “Azetidinyl phenyl, pyridyl or pyrazinyl carboxamide derivatives as JAK inhibitors” (Incyte Corporation, priority 2011, dated 2017).
Values belong to the compound of their own block, whether it stands above or below them.

What was measured:
Format in all cases: biochemical
[1] = target: human JAK1 (a.a. 837-1142) catalytic domain (Homo sapiens, UniProt P23458); assay: In vitro JAK kinase assay (HTRF, 1 mM ATP), JAK1; conditions: at 1 mM ATP;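 note: kinase activity followed as phosphorylation of a biotin-tagged peptide, detected by HTRF with Eu-labelled anti-phosphotyrosine antibody and SA-APC, after 1 h reaction at room temperature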
Protocol: (§1) The catalytic activity of JAK1, JAK2 or JAK3 was assayed by measuring the phosphorylation of a biotinylated peptide. The phosphorylated peptide was detected by homogenous time resolved fluorescence (HTRF). […] Reactions were carried out at room temperature for 1 hour and then stopped with 20 μL 45 mM EDTA, 300 nM SA-APC, 6 nM Eu-Py20 in assay buffer (Perkin Elmer, Boston, Mass.). Binding to the Europium labeled antibody took place for 40 minutes and HTRF signal was measured on a Fusion plate reader (Perkin Elmer, Boston, Mass.).

[2] = tested on: human JAK1 (a.a. 837-1142) catalytic domain; assay: In vitro JAK kinase assay (HTRF, 1 mM ATP), JAK1; conditions: ratio of JAK2 IC50 to JAK1 IC50 at 1 mM ATP;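 note: kinase activity followed as phosphorylation of a biotin-tagged peptide, detected by HTRF with Eu-labelled anti-phosphotyrosine antibody and SA-APC, after 1 h reaction at room temperature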
Protocol: as §1

[3] = target: human JAK2 (a.a. 828-1132) catalytic domain (Homo sapiens (Human), UniProt O60674); assay: In vitro JAK kinase assay (HTRF, 1 mM ATP), JAK2; conditions: at 1 mM ATP
Sequence of human JAK2 (a.a. 828-1132) catalytic domain (O60674 828-1132): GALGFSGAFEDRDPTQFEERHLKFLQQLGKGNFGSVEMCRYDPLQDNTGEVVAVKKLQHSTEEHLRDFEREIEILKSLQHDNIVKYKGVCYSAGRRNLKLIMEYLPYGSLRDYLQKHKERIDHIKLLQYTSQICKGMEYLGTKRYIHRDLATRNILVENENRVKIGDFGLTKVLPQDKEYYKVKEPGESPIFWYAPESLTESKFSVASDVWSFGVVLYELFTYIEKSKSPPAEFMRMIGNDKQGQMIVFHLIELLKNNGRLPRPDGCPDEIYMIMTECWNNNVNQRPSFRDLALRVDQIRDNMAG
Protocol: as §1

Sequence of human JAK1 (a.a. 837-1142) catalytic domain (Homo sapiens, UniProt P23458) (P23458 whole entry, looked up, the tested form may be a part): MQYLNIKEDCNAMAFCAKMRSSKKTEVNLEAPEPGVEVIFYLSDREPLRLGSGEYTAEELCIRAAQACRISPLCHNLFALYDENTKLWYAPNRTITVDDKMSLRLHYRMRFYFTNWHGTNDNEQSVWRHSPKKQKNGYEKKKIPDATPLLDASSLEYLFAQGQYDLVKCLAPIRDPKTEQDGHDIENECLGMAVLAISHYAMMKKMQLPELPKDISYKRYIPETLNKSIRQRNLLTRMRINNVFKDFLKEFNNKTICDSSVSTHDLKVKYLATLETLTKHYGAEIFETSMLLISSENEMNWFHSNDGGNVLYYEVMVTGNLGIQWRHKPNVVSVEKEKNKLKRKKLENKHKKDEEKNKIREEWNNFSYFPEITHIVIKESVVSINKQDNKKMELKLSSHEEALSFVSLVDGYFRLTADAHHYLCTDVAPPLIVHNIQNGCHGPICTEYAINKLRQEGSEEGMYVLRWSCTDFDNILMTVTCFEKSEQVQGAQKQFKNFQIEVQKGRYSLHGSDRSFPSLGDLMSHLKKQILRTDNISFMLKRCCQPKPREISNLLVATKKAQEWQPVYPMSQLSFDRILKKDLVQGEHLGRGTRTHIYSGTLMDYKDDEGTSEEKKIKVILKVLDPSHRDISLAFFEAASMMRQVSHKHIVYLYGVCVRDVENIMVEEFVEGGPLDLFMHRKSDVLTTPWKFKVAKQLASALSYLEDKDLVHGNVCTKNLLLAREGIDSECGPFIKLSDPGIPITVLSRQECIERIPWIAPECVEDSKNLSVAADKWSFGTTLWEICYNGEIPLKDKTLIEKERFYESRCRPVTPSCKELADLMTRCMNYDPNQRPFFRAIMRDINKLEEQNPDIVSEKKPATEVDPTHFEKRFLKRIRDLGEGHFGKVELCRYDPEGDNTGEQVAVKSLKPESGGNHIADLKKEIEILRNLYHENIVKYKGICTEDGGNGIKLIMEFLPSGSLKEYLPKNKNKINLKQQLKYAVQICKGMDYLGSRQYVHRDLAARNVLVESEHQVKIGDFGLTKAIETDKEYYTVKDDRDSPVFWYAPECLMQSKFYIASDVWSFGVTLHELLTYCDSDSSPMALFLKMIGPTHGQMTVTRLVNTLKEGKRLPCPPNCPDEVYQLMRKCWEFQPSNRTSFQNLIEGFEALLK

SMILES: CC[C@@H](C)NC(=O)c1ccc(N2CC(CC#N)(n3cc(-c4ncnc5[nH]ccc45)cn3)C2)cc1 [Example 25, 4-{3-(Cyanomethyl)-3-[4-(7H-pyrrolo[2,3-d]pyrimidin-4-yl)-1H-pyrazol-1-yl]azetidin-1-yl}-N-[(1R)-1-methylpropyl]benzamide bis(trifluoroacetate)]
- IC50 [1]: < 10 nM
- JAK2/JAK1 [2]: A (A means greater than or equal to 10)
- IC50 [3]: ≤ 10 nM

SMILES: CC(C)NC(=O)c1cc(F)c(N2CC(CC#N)(n3cc(-c4ncnc5[nH]ccc45)cn3)C2)cc1F [Example 6, 4-{3-(Cyanomethyl)-3-[4-(7H-pyrrolo[2,3-d]pyrimidin-4-yl)-1H-pyrazol-1-yl]azetidin-1-yl}-2,5-difluoro-N-isopropylbenzamide]
- IC50 [1]: < 10 nM
- JAK2/JAK1 [2]: A (A means greater than or equal to 10)
- IC50 [3]: ≤ 10 nM

SMILES: C[C@H](NC(=O)c1cc(F)c(N2CC(CC#N)(n3cc(-c4ncnc5[nH]ccc45)cn3)C2)cc1F)C(F)(F)F [Example 28, 4-{3-(Cyanomethyl)-3-[4-(7H-pyrrolo[2,3-d]pyrimidin-4-yl)-1H-pyrazol-1-yl]azetidin-1-yl}-2,5-difluoro-N-[(1S)-2,2,2-trifluoro-1-methylethyl]benzamide]
- IC50 [1]: < 10 nM
- JAK2/JAK1 [2]: A (A means greater than or equal to 10)
- IC50 [3]: ≤ 10 nM

SMILES: C[C@H](NC(=O)c1ccc(N2CC(CC#N)(n3cc(-c4ncnc5[nH]ccc45)cn3)C2)cn1)C1CC1 [Example 11, 5-{3-(Cyanomethyl)-3-[4-(7H-pyrrolo[2,3-d]pyrimidin-4-yl)-1H-pyrazol-1-yl]azetidin-1-yl}-N-[(1S)-1-cyclopropylethyl]pyridine-2-carboxamide]
- IC50 [1]: < 10 nM
- JAK2/JAK1 [2]: A (A means greater than or equal to 10)
- IC50 [3]: ≤ 10 nM

SMILES: N#CCC1(n2cc(-c3ccnc4[nH]ccc34)cn2)CN(c2cnc(C(=O)NCC(F)(F)F)cn2)C1 [Example 36, 5-{3-(Cyanomethyl)-3-[4-(1H-pyrrolo[2,3-b]pyridin-4-yl)-1H-pyrazol-1-yl]azetidin-1-yl}-N-(2,2,2-trifluoroethyl)pyrazine-2-carboxamide]
- IC50 [1]: < 10 nM
- JAK2/JAK1 [2]: A (A means greater than or equal to 10)
- IC50 [3]: 10 to 40 nM

SMILES: C[C@H](NC(=O)c1cnc(N2CC(CC#N)(n3cc(-c4ncnc5[nH]ccc45)cn3)C2)cn1)C(F)(F)F [Example 31, 5-{3-(Cyanomethyl)-3-[4-(7H-pyrrolo[2,3-d]pyrimidin-4-yl)-1H-pyrazol-1-yl]azetidin-1-yl}-N-[(1S)-2,2,2-trifluoro-1-methylethyl]pyrazine-2-carboxamide]
- IC50 [1]: < 10 nM
- JAK2/JAK1 [2]: A (A means greater than or equal to 10)
- IC50 [3]: ≤ 10 nM

SMILES: C[C@@H](NC(=O)c1cnc(N2CC(CC#N)(n3cc(-c4ncnc5[nH]ccc45)cn3)C2)cn1)C(F)(F)F [Example 30, 5-{3-(Cyanomethyl)-3-[4-(7H-pyrrolo[2,3-d]pyrimidin-4-yl)-1H-pyrazol-1-yl]azetidin-1-yl}-N-[(1R)-2,2,2-trifluoro-1-methylethyl]pyrazine-2-carboxamide]
- IC50 [1]: < 10 nM
- JAK2/JAK1 [2]: A (A means greater than or equal to 10)
- IC50 [3]: 10 to 40 nM

SMILES: C[C@@H](NC(=O)c1ccc(N2CC(CC#N)(n3cc(-c4ncnc5[nH]ccc45)cn3)C2)c(F)c1)C(F)(F)F [Example 16, 4-{3-(Cyanomethyl)-3-[4-(7H-pyrrolo[2,3-d]pyrimidin-4-yl)-1H-pyrazol-1-yl]azetidin-1-yl}-3-fluoro-N-[(1R)-2,2,2-trifluoro-1-methylethyl]benzamide]
- IC50 [1]: < 10 nM
- JAK2/JAK1 [2]: A (A means greater than or equal to 10)
- IC50 [3]: ≤ 10 nM

SMILES: C[C@@H](NC(=O)c1ccc(N2CC(CC#N)(n3cc(-c4ncnc5[nH]ccc45)cn3)C2)cc1F)C1CC1 [Example 39, 4-{3-(Cyanomethyl)-3-[4-(7H-pyrrolo[2,3-d]pyrimidin-4-yl)-1H-pyrazol-1-yl]azetidin-1-yl}-N-[(1R)-1-cyclopropylethyl]-2-fluorobenzamide]
- IC50 [1]: < 10 nM
- JAK2/JAK1 [2]: A (A means greater than or equal to 10)
- IC50 [3]: 10 to 40 nM

SMILES: C[C@@H](NC(=O)c1cc(F)c(N2CC(CC#N)(n3cc(-c4ncnc5[nH]ccc45)cn3)C2)cc1F)C(F)(F)F [Example 29, 4-{3-(Cyanomethyl)-3-[4-(7H-pyrrolo[2,3-d]pyrimidin-4-yl)-1H-pyrazol-1-yl]azetidin-1-yl}-2,5-difluoro-N-[(1R)-2,2,2-trifluoro-1-methylethyl]benzamide]
- IC50 [1]: < 10 nM
- JAK2/JAK1 [2]: A (A means greater than or equal to 10)
- IC50 [3]: ≤ 10 nM

SMILES: C[C@H](NC(=O)c1ccc(N2CC(CC#N)(n3cc(-c4ncnc5[nH]ccc45)cn3)C2)cc1F)C(F)(F)F [Example 22, 4-{3-(Cyanomethyl)-3-[4-(7H-pyrrolo[2,3-d]pyrimidin-4-yl)-1H-pyrazol-1-yl]azetidin-1-yl}-2-fluoro-N-[(1S)-2,2,2-trifluoro-1-methylethyl]benzamide]
- IC50 [1]: < 10 nM
- JAK2/JAK1 [2]: A (A means greater than or equal to 10)
- IC50 [3]: 10 to 40 nM

SMILES: N#CCC1(n2cc(-c3ncnc4[nH]ccc34)cn2)CN(c2ccc(C(=O)N[C@@H](C3CC3)C(F)(F)F)cc2)C1 [Example 38, 4-{3-(Cyanomethyl)-3-[4-(7H-pyrrolo[2,3-d]pyrimidin-4-yl)-1H-pyrazol-1-yl]azetidin-1-yl}-N-[(1S)-1-cyclopropyl-2,2,2-trifluoroethyl]benzamide]
- IC50 [1]: < 10 nM
- JAK2/JAK1 [2]: A (A means greater than or equal to 10)
- IC50 [3]: 10 to 40 nM

Continued, values first:

- IC50 [1]: < 10 nM
- JAK2/JAK1 [2]: A (A means greater than or equal to 10)
- IC50 [3]: 10 to 40 nM
SMILES: CC(NC(=O)c1ccc(N2CC(CC#N)(n3cc(-c4ncnc5[nH]ccc45)cn3)C2)cc1)C1CCN(C)CC1 (stereo not drawn) [Example 20, 4-{3-(Cyanomethyl)-3-[4-(7H-pyrrolo[2,3-d]pyrimidin-4-yl)-1H-pyrazol-1-yl]azetidin-1-yl}-N-[1-(1-methylpiperidin-4-yl)ethyl]benzamide]

- IC50 [1]: < 10 nM
- JAK2/JAK1 [2]: A (A means greater than or equal to 10)
- IC50 [3]: 10 to 40 nM
SMILES: N#CCC1(n2cc(-c3ncnc4[nH]ccc34)cn2)CN(c2cnc(C(=O)NC3(C(F)(F)F)CC3)cn2)C1 [Example 33, 5-{3-(Cyanomethyl)-3-[4-(7H-pyrrolo[2,3-d]pyrimidin-4-yl)-1H-pyrazol-1-yl]azetidin-1-yl}-N-[1-(trifluoromethyl)cyclopropyl]pyrazine-2-carboxamide]

- IC50 [1]: < 10 nM
- JAK2/JAK1 [2]: A (A means greater than or equal to 10)
- IC50 [3]: ≤ 10 nM
SMILES: C[C@H](NC(=O)c1ccc(N2CC(CC#N)(n3cc(-c4ncnc5[nH]ccc45)cn3)C2)c(F)c1)C1CC1 [Example 5, 4-{3-(Cyanomethyl)-3-[4-(7H-pyrrolo[2,3-d]pyrimidin-4-yl)-1H-pyrazol-1-yl]azetidin-1-yl}-N-[(1S)-1-cyclopropylethyl]-3-fluorobenzamide]

- IC50 [1]: < 10 nM
- JAK2/JAK1 [2]: A (A means greater than or equal to 10)
- IC50 [3]: ≤ 10 nM
SMILES: C[C@H](NC(=O)c1ccc(N2CC(CC#N)(n3cc(-c4ncnc5[nH]ccc45)cn3)C2)c(F)c1)C(F)(F)F [Example 10, 4-{3-(Cyanomethyl)-3-[4-(7H-pyrrolo[2,3-d]pyrimidin-4-yl)-1H-pyrazol-1-yl]azetidin-1-yl}-3-fluoro-N-[(1S)-2,2,2-trifluoro-1-methylethyl]benzamide]

- IC50 [1]: < 10 nM
- JAK2/JAK1 [2]: A (A means greater than or equal to 10)
- IC50 [3]: ≤ 10 nM
SMILES: C[C@H](NC(=O)c1ccc(N2CC(CC#N)(n3cc(-c4ccnc5[nH]ccc45)cn3)C2)cn1)C1CC1 [Example 2, 5-{3-(Cyanomethyl)-3-[4-(1H-pyrrolo[2,3-b]pyridin-4-yl)-1H-pyrazol-1-yl]azetidin-1-yl}-N-[(1S)-1-cyclopropylethyl]pyridine-2-carboxamide]

- IC50 [1]: < 10 nM
- JAK2/JAK1 [2]: A (A means greater than or equal to 10)
- IC50 [3]: ≤ 10 nM
SMILES: CN(C(=O)c1ccc(N2CC(CC#N)(n3cc(-c4ncnc5[nH]ccc45)cn3)C2)c(F)c1)C1CC1 [Example 7, 4-{3-(Cyanomethyl)-3-[4-(7H-pyrrolo[2,3-d]pyrimidin-4-yl)-1H-pyrazol-1-yl]azetidin-1-yl}-N-cyclopropyl-3-fluoro-N-methylbenzamide]
